For data set [1], the system named is lysyl hydroxylase. Kind of data set: Lysyl hydroxylase activity in extracts of treated human skin fibroblasts (Example 1, tritium-release assay). In kind it is cell-based. The settings on record: cultured fibroblasts; for effect on lysyl hydroxylase activity (in words): 72 h, Example 1. As to the method:
(§1) Cultures of human skin fibroblasts grown to confluence were incubated for 72 h in medium supplemented with 1% ethanol containing various concentrations of minoxidil or deoxyminoxidil as indicated. Cells were then harvested, and the enzyme activities in extracts of these cells were measured by tritium-release assays (Murad and Pinnell, J. Biol. Chem. 262:11,973 (1987)). The results are expressed as percentages of zero-concentration values.
(§2) Cultures of human skin fibroblasts grown to confluence were incubated for 72 h in medium supplemented with 1% ethanol containing various concentrations of minoxidil or with 1% acetone containing various concentrations of minoxidil sulfate, as indicated. Cells were then harvested, and the enzyme activities in extracts of these cells were measured by tritium release assays (Murad and Pinnell, J. Biol. Chem. 262:11,973 (1987)). The results are expressed as percentages of zero-concentration values.
(§3) Skin fibroblast cultures derived from an apparently normal child (GM05659) were obtained from the Institute for Medical Research, Camden, N.J. The cells were subcultured by trypsinization and used before 25 population doublings. Typically, 4×10^5 cells were seeded onto 100-mm (diameter) plastic petri dishes and allowed to grow in 10 ml of Dulbecco's modified Eagle's minimum essential medium containing 5.6 mM glucose, buffered in pH 7.4 with 24 mM sodium biocarbonate/25 mM Hepes and supplemented with 20% (v/v) calf serum which had been inactivated for 30 min at 56° C. The cells were incubated at 37° C. in a humidified atmosphere of 5% CO2 plus 95% air.
(§4) After a week, the medium was replaced with medium supplemented with 0.5% heat-inactivated diaylzed calf serum, and the incubation was continued for 72 h in the presence of minoxidil or one of its structural analogs. The compounds were dissolved in 95% ethanol, except minoxidil sulfate which was dissolved in acetone; the final solvent concentration was 1% (v/v). During the last 3 h of incubation, cells received 100 μM Na L-ascorbate to ensure complete hydroxylation of the polypeptide precursors of precollagen (Murad et al, J. Invest. Dermatol. 75:404 (1980)).
The medium was then removed and the cells were washed twice with a solution containing 0.14 M NaCl, 5 mM KCl, 0.3 mM Na2 PO4, and 0.4 mM KH2 PO4, adjusted to pH 7.4. The cells were detached from the plates with a solution containing 0.05% trypsin, 0.54 mM EDTA, 5.5mM glucose, 6.90mM NaHCO3, […], and 5 mM KCl. The trypsinization was terminated with 2 vol of 20% serum-supplemented medium, and the cell number in an aliquot of the suspension was determined using a Coulter counter.
The detached cells were collected by centrifugation at 500g for 6 min at 4° C. washed twice by suspending in phosphate-buffered NaCl/KCl as above, and then centrifuged. The cell pellet was suspended in a medium (1 ml/5×10^6 cells) containing 0.2 M NaCl, 0.1 M glycine, 50 μM dithiothreitol, 20 mM Tris-HCl, buffer (pH 7.5), 0.1% Triton X-100, and 0.01% soybean trypsin inhibitor. The suspension was sonicated for 30 s using a Branson sonifier cell disrupter. The lysate was centrifuged at 27,000g for 1 h at 4° C., and the resulting supernatant was used for prolyl and lysyl hydroxylase assays (Murad and Pinnell, J. Biol. Chem. 262:11, 973 (1987)). The enzyme activities are based on a unit of soluble cell protein.
(§5) The protein content of cell extracts was determined by a dye-binding technique using Bio-Rad reagent and protein standard (Bradford, Anal. Biochem. 72:248 (1976)).
Note: Cultures of human skin fibroblasts grown to confluence were
incubated for 72 h in medium supplemented with 1% ethanol containing 1 mM
of the indicated compounds. Cells were then harvested, and the enzyme
activity in extracts of these cells was measured by a tritiumrelease
incubated for 72 h in medium supplemented with 1% ethanol containing 1 nM

Data set [2] relates to prolyl hydroxylase. Briefly: Prolyl hydroxylase activity in extracts of treated human skin fibroblasts (Example 1, tritium-release assay). Type of data set: cell-based. The settings on record: cultured fibroblasts; for effect on prolyl hydroxylase activity (in words): 72 h, Example 1. The procedure:
as §1, §2, §3, §4
The medium was then removed and the cells were washed twice with a solution containing 0.14 M NaCl, 5 mM KCl, 0.3 mM Na2 PO4, and 0.4 mM KH2 PO4, adjusted to pH 7.4. […] The trypsinization was terminated with 2 vol of 20% serum-supplemented medium, and the cell number in an aliquot of the suspension was determined using a Coulter counter. […]
as §5

Data set [3] has as its system enzyme activity (lysyl hydroxylase, prolyl hydroxylase). Kind of data set: Direct inhibition of enzyme activity, mixing experiments with extracts of treated cells and controls. In kind it is biochemical, human. The procedure: The functional significance of the nitroxide oxygen in minoxidil was evaluated with a deoxy analog. Shown in FIG. 2 is a comparison of the effects of minoxidil and deoxyminoxidil on the activities of lysyl hydroxylase and the control enzyme prolyl hydroxylase in cultured fibroblasts.

The target in data set [4] is T1, lysyl hydroxylase (Homo sapiens, UniProt Q02809).
T1 sequence (Q02809 19-727): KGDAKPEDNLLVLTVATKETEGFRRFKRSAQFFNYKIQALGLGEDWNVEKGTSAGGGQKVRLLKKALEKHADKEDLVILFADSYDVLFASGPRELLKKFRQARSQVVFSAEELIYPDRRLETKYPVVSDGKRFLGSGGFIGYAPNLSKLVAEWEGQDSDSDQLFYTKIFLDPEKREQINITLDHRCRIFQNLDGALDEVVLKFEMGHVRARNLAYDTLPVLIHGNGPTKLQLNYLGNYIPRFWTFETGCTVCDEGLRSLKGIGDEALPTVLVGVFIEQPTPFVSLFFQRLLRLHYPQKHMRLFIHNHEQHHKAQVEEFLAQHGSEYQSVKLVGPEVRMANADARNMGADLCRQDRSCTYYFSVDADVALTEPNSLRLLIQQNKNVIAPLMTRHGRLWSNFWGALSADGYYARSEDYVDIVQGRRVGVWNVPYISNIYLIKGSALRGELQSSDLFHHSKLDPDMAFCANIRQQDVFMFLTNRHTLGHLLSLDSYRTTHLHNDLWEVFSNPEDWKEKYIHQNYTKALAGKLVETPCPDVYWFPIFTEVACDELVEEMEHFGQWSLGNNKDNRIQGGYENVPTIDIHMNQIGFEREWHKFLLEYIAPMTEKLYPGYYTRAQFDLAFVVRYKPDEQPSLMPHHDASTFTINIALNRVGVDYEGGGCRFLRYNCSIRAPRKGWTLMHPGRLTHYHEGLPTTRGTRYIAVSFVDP
Kind of data set: Direct inhibition of enzyme activity in vitro / mixing experiments with cell extracts. In kind it is biochemical.

A short description of data set [5]: Solubility with acetone as solvent. Type of data set: physicochemical. The settings on record: acetone as the solvent; concentrations higher than 500 μM could not be tested.

Where a name gives a salt, the structure may show the parent alone.

Consider `Nc1cc(N2CCCCC2)nc(N)n1` [Deoxyminoxidil], for which the IC50 is 118 µM in data set [1] (72 h (FIG. 2), read-out: concentration required for 50% inhibition (lysyl hydroxylase)) and 260 µM in data set [2] (72 h (FIG. 2), read-out: concentration required for 50% effect (prolyl hydroxylase)). Moreover, the “effect on lysyl hydroxylase activity (in words)” value in data set [1] is given as “suppressed lysyl hydroxylase activity in a manner remarkably similar to that observed with minoxidil”. In addition, the “effect on prolyl hydroxylase activity (in words)” value in data set [2] is on record as “suppressed prolyl hydroxylase activity in a dose-related manner”. Further, the “direct inhibition of enzyme activity (in words)” value in data set [3] is on record as “no evidence for direct inhibition of enzyme activity”.

On to `Nc1cc(N2CCCCC2)nc(N)[n+]1OS(=O)(=O)[O-]` [Minoxidil sulfate], for which the “effect on lysyl hydroxylase activity (in words)” value in data set [1] is recorded as “suppressed lysyl hydroxylase activity in a manner almost identical to that observed with minoxidil”. In addition, the “effect on prolyl hydroxylase activity (in words)” value in data set [2] is “no change in prolyl hydroxylase activity”. Moreover, in data set [4], the “inhibition of lysyl hydroxylase activity in vitro (in words)” value is on record as “failed to inhibit lysyl hydroxylase activity in vitro”. Besides, in data set [5], the “solubility (in words)” value is “limited solubility”.

(Values after US5328913A, “Minoxidil analogs as inhibitors of cell proliferation and lysyl hydroxylase” (priority 1992, dated 1994).)
